Key:
[1] = Intrinsic dissolution studies; assay type: physicochemical; settings: crystalline solid
Method: Intrinsic dissolution measurements were performed using a fiber optic probe (Delphian® type 11A fiber optic workstation, baseline correction mode with sample wavelength maximum of 279 nm and baseline wavelength of 350 nm) at 37° C. and 100 rpm in a USP apparatus II dissolution vessel (Vankel VK7010) containing 500 mL of pure water. Disks 0.8 cm diameter were compressed using 70 mg of solid in stainless steel dies (Vankel Woods apparatus) at 1000 lbs for 60 seconds with a Carver Press. Dissolution studies for cocrystal 2 lasted 90 minutes, after which time the disks were recovered, carefully ground and checked by XRPD for the presence of cocrystal. Due to the low solubility of Compound 1, dissolution studies were run over 24 hours in order to get a measurable rate.

[2] = Pharmacokinetic evaluation in beagle dogs after oral dosing of neat solid in gelatin capsule; assay type: in vivo; settings: oral dosing of the crystalline solid
Method: A study was conducted to compare the pharmacokinetic profiles of Compound 1 and Cocrystal 2. Compound 1 and Cocrystal 2 were administered as neat solids to six male beagle dogs in a crossover study with a two-week washout period between treatments. Each dog was dosed with either Compound 1 or Cocrystal 2 in a gelatin capsule after an overnight fast. All research involving animal subjects adhered to the “Principles of Laboratory Animal Care” (NIH publication #85-23). Dose levels of 5 mg/kg and 50 mg/kg were each evaluated. Each dog received one size #2 capsule for the 5 mg/kg dose. Dosing at 50 mg/kg required use of two size #00 capsules for each dog. Blood samples were collected at intervals for 36 hours post-dose. Non-compartmental pharmacokinetic metrics were determined using WinNonlin v. 1.5 (Scientific Consulting, Inc., Mountain View, Calif.). The area under the plasma concentration-time curve (AUC) was estimated by application of the linear trapezoidal rule. Statistical analyses were conducted using Microsoft Excel 2000; statistical significance was considered when p<0.05.

[3] = Solubility in aqueous systems; assay type: physicochemical
Text: Five cocrystals of 2-4-(4-chloro-2-fluorophenoxy)phenyl]pyrimidine-4-carboxamide (Compound 1) were identified by using techniques of the disclosure. […] Although the permeability of Compound 1 could not be measured in Caco-2 cells because of its inherently low solubility, Compound 1 is suspected to be a Class II compound (low solubility and high permeability) as described in the biopharmaceutical drug classification scheme (BCS) (Amidon, Gordon L., Lennernaes, Hans, Shah, Vinod P. and Crison, John R. (1995) “A theoretical basis for a biopharmaceutic drug classification: the correlation of in vitro drug product dissolution and in vivo bioavailability” Pharmaceutical Research […], 12(3), 4 13-20). The calculated octanol/water partition coefficient (clogP) for Compound 1 is 2.9, supporting this suspicion (Yazdanian, Mehran, Glynn, Susan L., Wright, James L., and Hawi, Amale. (1998) “Correlating partitioning and Caco-2 cell permeability of structurally diverse small molecular weight compounds” Pharmaceutical Research 1998 15(9), 1490-1494). […] Cocrystallization techniques were used as a tool to improve the pharmaceutical properties of Compound 1.

in-vitro dissolution [1]: low
in-vivo plasma concentrations [2]: low
solubility in aqueous systems [3]: < 0.1 µg/mL
Structure (SMILES): NC(=O)c1ccnc(-c2ccc(Oc3ccc(Cl)cc3F)cc2)n1 [Compound 1]

Reference: patent publication US20070088508A1, “Cocrystallization methods” (priority 2005, published 2007)
